The values that follow are results of earlier work, collected in patent US7935665B2, “Non-corrosive cleaning compositions for removing etch residues” (Fujifilm Electronic Materials U.S.A., Inc., priority 2002, dated 2011).

For the series the following is noted: of the acid in the formulation.

With `O=C(O)CC(O)C(=O)O` (racemic) [DL-malic acid], the PKa2 is listed as 5.1 and the pKa1 is 3.48.

Regarding `O=C(O)[C@H](O)[C@@H](O)[C@H](O)[C@H](O)CO` [D-gluconic acid], the pKa1 is 3.86.
